The values below come from patent US12023319B2, “Carboxylic acid aromatic amides” (priority 2016, dated 2024).

The target in this experiment is T1, human Bradykinin B1 receptor (Homo sapiens, UniProt P46663).
T1 construct: host or cells: CHO-K1
T1 sequence (P46663 1-353): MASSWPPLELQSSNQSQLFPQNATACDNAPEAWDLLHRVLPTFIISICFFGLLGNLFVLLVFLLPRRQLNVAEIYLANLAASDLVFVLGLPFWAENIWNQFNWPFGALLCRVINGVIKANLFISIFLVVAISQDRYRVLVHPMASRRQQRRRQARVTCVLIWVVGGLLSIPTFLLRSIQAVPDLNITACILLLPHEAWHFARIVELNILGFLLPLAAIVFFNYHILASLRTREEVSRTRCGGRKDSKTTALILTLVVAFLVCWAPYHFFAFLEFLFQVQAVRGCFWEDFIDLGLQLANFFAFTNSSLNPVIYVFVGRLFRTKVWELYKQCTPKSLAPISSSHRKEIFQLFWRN
The experiment in a line: Calcium flux assay (FLIPR), CHO-K1 cells expressing human Bradykinin B1 receptor, absence of 0.1% BSA (hB1 free IC50). The format is cell-based. Particulars: absence of 0.1% BSA in assay buffer. An outline of the steps: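 Peak FLIPR fluorescence (538 nm) after B1 agonist peptide addition gave IC50s, scaled between DMSO and full block by 20 µM Lys-(Des-Arg-Leu)-Bradykinin. Compounds were preincubated 30 min at 28° C with calcium-dye-loaded CHO-K1 cells expressing human B1, at 8 concentrations in triplicate, 1% DMSO final.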
(Calcium assays in cells follow changes in intracellular calcium, usually with a dye or a luminescent sensor.)
Consider `O=C(O)c1cc(NC(=O)C2(c3ccc(C(F)(F)F)cc3F)CC2)ccc1-c1cnn([C@H]2CCOC2)c1` [Example 84, 5-[({1-[2-Fluoro-4-(trifluoromethyl)phenyl]cyclopropyl}carbonyl)amino]-2-{1-[(3S)-tetrahydrofuran-3-yl]-1H-pyrazol-4-yl}benzoic acid], for which the IC50 turned out to be 570 nM.
The figure for `Cc1ccc(C2(C(=O)Nc3ccc(-c4cnn(C5CCC5)c4)c(C(=O)O)c3)CC2)cc1F` [Example 81, 2-(1-Cyclobutyl-1H-pyrazol-4-yl)-5-({[1-(3-fluoro-4-methylphenyl)cyclopropyl]carbonyl}amino)benzoic acid] is 680 nM; for `CC1(C)CC1(C(=O)Nc1ccc(-c2cnn(C3CCC3)c2)c(C(=O)O)c1)c1ccccc1F` (stereo not drawn) [Example 64, 2-(1-Cyclobutyl-1H-pyrazol-4-yl)-5-({[1-(2-fluorophenyl)-2,2-dimethylcyclopropyl]carbonyl}amino)benzoic acid] it is 1300 nM.
The figure for `CC(C)(C)n1cc(-c2c(F)cc(NC(=O)C3(c4ccc(C(F)(F)F)cc4F)CC3)cc2C(=O)O)cn1` [Example 93, 2-(1-tert-Butyl-1H-pyrazol-4-yl)-3-fluoro-5-[({1-[2-fluoro-4-(trifluoromethyl)phenyl]cyclopropyl}carbonyl)amino]benzoic acid] is 61 nM.
For `CC1CCC(C2(C(=O)Nc3cc(F)c(-c4cnn(C5CCC5)c4)c(C(=O)O)c3)CC2)CC1` (stereo not drawn) [Example 145, 2-(1-Cyclobutyl-1H-pyrazol-4-yl)-3-fluoro-5-({[1-(4-methylcyclohexyl)cyclopropyl]carbonyl}amino)benzoic acid] the value was 160 nM.
With `CC(O)c1ccc(-c2ccc(NC(=O)C3(c4ccc(C(F)(F)F)cc4F)CC3)cc2C(=O)O)cn1` (stereo not drawn) [Example 33, 5-[({1-[2-Fluoro-4-(trifluoromethyl)phenyl]cyclopropyl}carbonyl)amino]-2-[6-(1-hydroxyethyl)pyridin-3-yl]benzoic acid], the IC50 stood at 460 nM.
For `O=C(O)c1cc(NC(=O)C2(Cc3ccc(Cl)cc3)CC2)cc(F)c1-c1cnn(C2CCC2)c1` [Example 142, 5-({[1-(4-Chlorobenzyl)cyclopropyl]carbonyl}amino)-2-(1-cyclobutyl-1H-pyrazol-4-yl)-3-fluorobenzoic acid] the value was 3100 nM; for `O=C(O)c1cc(NC(=O)C2(c3ccc(F)cn3)CC2)ccc1-c1cnn(C2CCC2)c1` [Example 82, 2-(1-Cyclobutyl-1H-pyrazol-4-yl)-5-({[1-(5-fluoropyridin-2-yl)cyclopropyl]carbonyl}amino)benzoic acid], 2500 nM.
`CC(C)Cn1cc(-c2ccc(NC(=O)C3(c4ccc(F)cc4F)CC3)cc2C(=O)O)cn1` [Example 116, 5-({[1-(2,4-Difluorophenyl)cyclopropyl]carbonyl}amino)-2-(1-isobutyl-1H-pyrazol-4-yl)benzoic acid]: the 50% inhibitory concentration (IC50) turned out to be 210 nM.
The figure for `CCn1cc(-c2c(F)cc(NC(=O)C3(c4ccc(C(F)(F)F)cc4F)CC3)cc2C(=O)O)cn1` [Example 138, 2-(1-Ethyl-1H-pyrazol-4-yl)-3-fluoro-5-[({1-[2-fluoro-4-(trifluoromethyl)phenyl]cyclopropyl}carbonyl)amino]benzoic acid] is 18 nM; for `O=C(O)c1cc(NC(=O)C2(c3cc(F)c(F)cc3F)CC2)ccc1-c1ccc(C(F)(F)F)nc1` [Example 8, 2-[6-(Trifluoromethyl)pyridin-3-yl]-5-({[1-(2,4,5-trifluorophenyl)cyclopropyl]carbonyl}amino)benzoic acid] it is 690 nM.
With `O=C(O)c1cc(NC(=O)C2(c3c(F)cccc3Cl)CC2)ccc1-c1cnn(C2CCC2)c1` [Example 62, 5-({[1-(2-Chloro-6-fluorophenyl)cyclopropyl]carbonyl}amino)-2-(1-cyclobutyl-1H-pyrazol-4-yl)benzoic acid], the IC50 was 89 nM.

One may read the IC50 as the midpoint of a concentration-inhibition curve.
